Measured values published in patent US9815787B2, “Sulfonamide derivative or pharmaceutically acceptable acid addition salt thereof” (UNIVERSITY OF TSUKUBA, priority 2013, dated 2017).

Biological target: T1, OX2R (Homo sapiens, UniProt O43614)
T1 construct: expressed in transfected cells; host or cells: CHO (Chinese hamster ovary) cells constitutively expressing the OX2R gene and NFAT-luciferase (CHOOX2R)
T1 sequence (O43614 1-444): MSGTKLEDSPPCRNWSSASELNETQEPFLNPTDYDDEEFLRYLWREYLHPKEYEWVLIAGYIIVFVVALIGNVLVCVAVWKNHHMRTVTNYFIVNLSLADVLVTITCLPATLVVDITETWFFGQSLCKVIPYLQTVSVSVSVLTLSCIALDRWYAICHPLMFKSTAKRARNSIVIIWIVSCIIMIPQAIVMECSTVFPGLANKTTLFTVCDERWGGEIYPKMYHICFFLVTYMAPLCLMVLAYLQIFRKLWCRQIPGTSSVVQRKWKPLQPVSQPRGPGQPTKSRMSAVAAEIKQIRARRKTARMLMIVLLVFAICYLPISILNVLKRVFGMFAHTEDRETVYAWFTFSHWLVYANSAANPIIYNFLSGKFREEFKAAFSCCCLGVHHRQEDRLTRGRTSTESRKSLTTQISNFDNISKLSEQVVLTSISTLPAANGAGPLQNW
Assay: Evaluation of agonist activity against OX2R (CHOOX2R cells, Fura2AM fluorescence, FDSS3000)
Type: cell-based
Protocol: Evaluation of Agonist Activity Against OX2R
NFAT-luciferase gene and OX2R gene were each constitutively expressed in CHO cell, which is a cell line derived from Chinese hamster ovary to establish a cell line (CHOOX2R). The cells thereof were sown on a 96 well plate at 10000 cells/well, and cultured in a 5% FBS-added DMEM medium for 48 hr. […] After washing, HEPES buffer (75 μL) was added, a test compound solution (25 μL) was added, and changes in the fluorescence intensity were measured by FDSS3000 (Hamamatsu Photonics K.K.). The test compound was dissolved in DMSO (final concentration of DMSO was 1%), and diluted with HEPES buffer to a final concentration of 0.1 μM, 1.0 μM or 10 μM.

[1] = test compound 0.1 μM; relative to orexin-A as full agonist (100%); CHOOX2R cells
[2] = test compound 1.0 μM; relative to orexin-A as full agonist (100%); CHOOX2R cells
[3] = test compound 10 μM; relative to orexin-A as full agonist (100%); CHOOX2R cells
[4] = OX2R agonist activity; CHOOX2R cells
[5] = conversion with orexin-A as full agonist (maximum agonist activity 100%)
[6] = test compound 0.1 μM; CHOOX2R cells; relative to orexin-A as full agonist (100%)
[7] = test compound 1.0 μM; CHOOX2R cells; relative to orexin-A as full agonist (100%)
[8] = test compound 10 μM; CHOOX2R cells; relative to orexin-A as full agonist (100%)

Response (0.1 μM (%)) [1] [%] | Response (1.0 μM (%)) [2] [%] | Response (10 μM (%)) [3] [%] | EC50 [4] [nM] | Emax [5] [%] | Response (0.1 μM (%)) [6] [%] | Response (1.0 μM (%)) [7] [%] | Response (10 μM (%)) [8] [%] | SMILES
<5 | <5 | <5 | – | – | – | – | – | COc1cccc(C(=O)NCCNc2cccc(NS(=O)(=O)c3cc(-c4c(F)cccc4OC)ccc3OC)c2)c1 [Example 24, N-(2-((3-(2′-fluoro-4,6′-dimethoxy-[1,1′-biphenyl]-3-ylsulfonamide)phenyl)amino)ethyl)-3-methoxybenzamide]
<5 | 7 | 38 | – | – | – | – | – | COc1ccccc1C(=O)NCCNc1cccc(NS(=O)(=O)c2cc(-c3cc(Cl)ccc3Cl)ccc2OC)c1 [Example 25, N-(2-((3-(2′,5′-dichloro-4-methoxy-[1,1′-biphenyl]-3-ylsulfonamide)phenyl)amino)ethyl)-2-methoxybenzamide]
<5 | 5 | 29 | – | – | – | – | – | COc1cccc(C(=O)NCCNc2cccc(NS(=O)(=O)c3cc(-c4cc(Cl)ccc4Cl)ccc3OC)c2)c1 [Example 26, N-(2-((3-(2′,5′-dichloro-4-methoxy-[1,1′-biphenyl]-3-ylsulfonamide)phenyl)amino)ethyl)-3-methoxybenzamide]
<5 | <5 | <5 | – | – | – | – | – | COc1ccccc1C(=O)NCCNc1cccc(NS(=O)(=O)c2cc(-c3cc(Cl)cc(Cl)c3)ccc2OC)c1 [Example 27, N-(2-((3-(3′,5′-dichloro-4-methoxy-[1,1′-biphenyl]-3-ylsulfonamide)phenyl)amino)ethyl)-2-methoxybenzamide]
<5 | <5 | <5 | – | – | – | – | – | COc1cccc(C(=O)NCCNc2cccc(NS(=O)(=O)c3cc(-c4cc(Cl)cc(Cl)c4)ccc3OC)c2)c1 [Example 28, N-(2-((3-(3′,5′-dichloro-4-methoxy-[1,1′-biphenyl]-3-ylsulfonamide)phenyl)amino)ethyl)-3-methoxybenzamide]
<5 | 16 | 73 | 800 | 54 | – | – | – | COc1cccc(C(=O)NCCNc2cccc(NS(=O)(=O)c3cc(-c4cccc(Cl)c4)ccc3OC)c2)c1 [Example 29, N-(2-((3-(3′-chloro-4-methoxy-[1,1′-biphenyl]-3-ylsulfonamide)phenyl)amino)ethyl)-3-methoxybenzamide]
6 | 67 | 103 | – | – | – | – | – | COc1cccc(C(=O)NCCNc2cccc(NS(=O)(=O)c3cc(-c4cccc(OC)c4)ccc3OC)c2)c1 [Example 31, N-(2-((3-(3′,4-dimethoxy-[1,1′-biphenyl]-3-ylsulfonamide)phenyl)amino)ethyl)-3-methoxybenzamide]
<5 | 26 | 75 | – | – | – | – | – | COc1ccccc1C(=O)NCCNc1cccc(NS(=O)(=O)c2cc(-c3cc(F)ccc3Cl)ccc2OC)c1 [Example 32, N-(2-((3-(2′-chloro-5′-fluoro-4-methoxy-[1,1′-biphenyl]-3-ylsulfonamide)phenyl)amino)ethyl)-2-methoxybenzamide]
<5 | 31 | 93 | – | – | – | – | – | COc1cccc(C(=O)NCCNc2cccc(NS(=O)(=O)c3cc(-c4cc(F)ccc4Cl)ccc3OC)c2)c1 [Example 33, N-(2-((3-(2′-chloro-5′-fluoro-4-methoxy-[1,1′-biphenyl]-3-ylsulfonamide)phenyl)amino)ethyl)-3-methoxybenzamide]
– | – | – | – | – | 13 | 64 | 123 | COc1ccc(F)c(-c2ccc(OC)c(S(=O)(=O)Nc3cccc(NCCNC(=O)c4ccccc4OC)c3)c2)c1 [Example 34, N-(2-((3-(2′-fluoro-4,5′-dimethoxy-[1,1′-biphenyl]-3-ylsulfonamide)phenyl)amino)ethyl)-2-methoxybenzamide]
– | – | – | – | – | 13 | 68 | 127 | COc1cccc(C(=O)NCCNc2cccc(NS(=O)(=O)c3cc(-c4cc(OC)ccc4F)ccc3OC)c2)c1 [Example 35, N-(2-((3-(2′-fluoro-4,5′-dimethoxy-[1,1′-biphenyl]-3-ylsulfonamide)phenyl)amino)ethyl)-3-methoxybenzamide]
– | – | – | – | – | <5 | 11 | 68 | COc1cc(OC)cc(-c2ccc(OC)c(S(=O)(=O)Nc3cccc(NCCNC(=O)c4ccccc4OC)c3)c2)c1 [Example 36, 2-methoxy-N-(2-((3-(3′,4,5′-trimethoxy-[1,1′-biphenyl]-3-ylsulfonamide)phenyl)amino)ethyl)benzamide]
– | – | – | – | – | 16 | 102 | 163 | COc1ccccc1C(=O)NCCNc1cccc(NS(=O)(=O)c2cc(-c3cccc(N)c3)ccc2OC)c1 [Example 37, N-(2-((3-(3′-amino-4-methoxy-[1,1′-biphenyl]-3-ylsulfonamide)phenyl)amino)ethyl)-2-methoxybenzamide]
– | – | – | – | – | 8 | 37 | 113 | COc1ccccc1C(=O)NCCNc1cccc(NS(=O)(=O)c2cc(-c3cccc(NCC(C)C)c3)ccc2OC)c1 [Example 38, N-(2-((3-(3′-(isobutylamino)-4-methoxy-[1,1′-biphenyl]-3-ylsulfonamide)phenyl)amino)ethyl)-2-methoxybenzamide]
– | – | – | – | – | <5 | 27 | 102 | COc1ccccc1C(=O)NCCNc1cccc(NS(=O)(=O)c2cc(-c3cccc(CO)c3)ccc2OC)c1 [Example 39, N-(2-((3-(3′-(hydroxymethyl)-4-methoxy-[1,1′-biphenyl]-3-ylsulfonamide)phenyl)amino)ethyl)-2-methoxybenzamide]
– | – | – | 50 | 74 | 35 | 74 | 74 | COc1ccccc1C(=O)NCCNc1cccc(NS(=O)(=O)c2cc(-c3cccc(C(=O)N(C)C)c3)ccc2OC)c1 [Example 40, 4′-methoxy-3′-(N-(3-((2-(2-methoxybenzamido)ethyl)amino)phenyl)sulfamoyl)-N,N-dimethyl-[1,1′-biphenyl]-3-carboxamide]
– | – | – | 33 | 57 | 70 | 107 | 115 | COc1cccc(C(=O)NCCNc2cccc(NS(=O)(=O)c3cc(-c4cccc(C(=O)N(C)C)c4)ccc3OC)c2)c1 [Example 41, 4′-methoxy-3′-(N-(3-((2-(3-methoxybenzamido)ethyl)amino)phenyl)sulfamoyl)-N,N-dimethyl-[1,1′-biphenyl]-3-carboxamide]
– | – | – | 31 | 90 | 65 | 103 | 114 | COc1ccc(-c2cccc(C(=O)N(C)C)c2)cc1S(=O)(=O)Nc1cccc(NCCNC(=O)c2ccccc2Cl)c1 [Example 42, 3′-(N-(3-((2-(2-chlorobenzamido)ethyl)amino)phenyl)sulfamoyl)-4′-methoxy-N,N-dimethyl-[1,1′-biphenyl]-3-carboxamide]
– | – | – | 300 | 94 | <5 | 55 | 94 | COc1ccc(-c2cccc(C(=O)N(C)C)c2)cc1S(=O)(=O)Nc1cccc(NCCNC(=O)c2ccccc2F)c1 [Example 43, 3′-(N-(3-((2-(2-fluorobenzamido)ethyl)amino)phenyl)sulfamoyl)-4′-methoxy-N,N-dimethyl-[1,1′-biphenyl]-3-carboxamide]
– | – | – | 1050 | 94 | <5 | 28 | 94 | COc1ccc(C(=O)NCCNc2cccc(NS(=O)(=O)c3cc(-c4cccc(C(=O)N(C)C)c4)ccc3OC)c2)cc1 [Example 44, 4′-methoxy-3′-(N-(3-((2-(4-methoxybenzamido)ethyl)amino)phenyl)sulfamoyl)-N,N-dimethyl-[1,1′-biphenyl]-3-carboxamide]
– | – | – | 115 | 100 | <5 | 80 | 98 | COc1ccc(-c2cccc(C(=O)N(C)C)c2)cc1S(=O)(=O)Nc1cccc(NCCNC(=O)c2c(F)cccc2F)c1 [Example 45, 3′-(N-(3-((2-(2,6-difluorobenzamido)ethyl)amino)phenyl)sulfamoyl)-4′-methoxy-N,N-dimethyl-[1,1′-biphenyl]-3-carboxamide]
